In US20120301551A1, “COMPOUNDS AND COMPOSITIONS FOR TREATING NEURONAL DEATH OR NEUROLOGICAL DYSFUNCTION” (Neurotech Pharmaceuticals Co., Ltd., priority 2005, published 2012):

Key:
Format in all cases: in vivo, mouse
[1] = system: APPswe/PS1deltaE9 double transgenic mice; experiment: brain Aβ40/Aβ42 levels in APPswe/PS1deltaE9 double transgenic mice (ELISA); conditions: 25 mg/kg/d chemical 01 or 62.5 mg/kg/day ibuprofen for 14.5 months
Method: SDS-soluble/insoluble Aβ40 or Aβ42 levels were analyzed by colorimetric sandwich ELISA kit (BIOSOURCE, Camarillo, Calif.).

[2] = system: APPswe/PS1deltaE9 double transgenic mice; experiment: Morris water maze in APPswe/PS1deltaE9 double transgenic mice; conditions: 25 mg/kg/day chemical 01 or 62.5 mg/kg/day ibuprofen for 14.5 months (3~17.5 months)
Method: After administration of 14.5 months, the cognitive function was analyzed by Morris water maze test like example 10-3-1 (mean±SEM, n=3-5).
(§1) 17.5 month-old APPswe/PS1deltaE9 double transgenic mice were fed chow alone (saline only), or containing 25 mg/kg/day of chemical—01, for […] (3˜17.5 month).
The cognitive function was analyzed by Morris water maze test. Mice ware trained to perform a hidden platform task in the Morris water maze. The latency to find the platform was recorded for each mouse.

[3] = system: APPswe/PS1deltaE9 double transgenic mice; experiment: open field activity in APPswe/PS1deltaE9 double transgenic mice; conditions: 25 mg/kg/day chemical 01 or 62.5 mg/kg/day ibuprofen for 14.5 months (3~17.5 months)
Method: After administration of drug for 14.5 months, Open field activity test was performed to evaluate locomotor activity and exploratory behavior. 4×4 of scale marks were drawn in white acryl box having a size of 60 cm×60 cm×35 cm (width×length×height) to make sixteen squares. Four squares in the center became center zone and twelve squares around the center zone became peripary zone. Mice were laid into transparent acryl tube (diameter: about 3.5 inches) laid at the left corner of the acryl box for 30 seconds. After 30 seconds, acryl tube was removed to make mouse free. Experiment was once performed for each mouse for 5 minutes. The distance traveled in the open field was recorded (mean±SEM, n=3-5).
as §1
Open field activity was used to evaluate locomotor activity and exploratory behavior. The distance traveled in the open field was recorded and performance was analyzed after the testing took place.

CC(C)Cc1ccc(C(C)C(=O)O)cc1 (stereo not drawn) [ibuprofen, reference compound]
SDS-soluble/insoluble Aβ40 or Aβ42 levels, in words [1]: did not reduce | escape latency / cognitive function (Morris water maze) [2]: did not improved cognitive function | open field activity (distance traveled) [3]: non-significant trend
